What was measured:
D(2) dopamine receptor = D(2) dopamine receptor (Homo sapiens, UniProt P14416); experiment: Displacement of [3H]N-methylspiperone from human dopamine D2 receptor expressed in HEK293 cell membranes after 1 hr by scintillation counting method
D(3) dopamine receptor = D(3) dopamine receptor (Homo sapiens, UniProt P35462); experiment: Displacement of [3H]N-methylspiperone from human dopamine D3 receptor expressed in HEK293 cell membranes after 1 hr by scintillation counting method
D(3) dopamine receptor, sequence (P35462 whole entry): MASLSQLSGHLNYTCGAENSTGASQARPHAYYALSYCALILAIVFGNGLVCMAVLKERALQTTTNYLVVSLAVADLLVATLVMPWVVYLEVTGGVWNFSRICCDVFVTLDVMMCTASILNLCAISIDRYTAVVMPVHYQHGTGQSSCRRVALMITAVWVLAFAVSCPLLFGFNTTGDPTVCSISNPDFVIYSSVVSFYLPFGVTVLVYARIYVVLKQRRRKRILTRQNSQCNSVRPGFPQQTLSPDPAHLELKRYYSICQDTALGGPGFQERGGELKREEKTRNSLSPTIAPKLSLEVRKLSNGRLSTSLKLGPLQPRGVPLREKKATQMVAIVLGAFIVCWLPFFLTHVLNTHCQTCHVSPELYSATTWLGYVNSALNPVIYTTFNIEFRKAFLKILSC

D(4) dopamine receptor [1] = target: T1, D(4) dopamine receptor (Homo sapiens, UniProt P21917); experiment: Displacement of [3H]N-methylspiperone from human dopamine D4 receptor expressed in HEK293 cell membranes after 1 hr by scintillation counting method
T1 sequence (P21917 whole entry): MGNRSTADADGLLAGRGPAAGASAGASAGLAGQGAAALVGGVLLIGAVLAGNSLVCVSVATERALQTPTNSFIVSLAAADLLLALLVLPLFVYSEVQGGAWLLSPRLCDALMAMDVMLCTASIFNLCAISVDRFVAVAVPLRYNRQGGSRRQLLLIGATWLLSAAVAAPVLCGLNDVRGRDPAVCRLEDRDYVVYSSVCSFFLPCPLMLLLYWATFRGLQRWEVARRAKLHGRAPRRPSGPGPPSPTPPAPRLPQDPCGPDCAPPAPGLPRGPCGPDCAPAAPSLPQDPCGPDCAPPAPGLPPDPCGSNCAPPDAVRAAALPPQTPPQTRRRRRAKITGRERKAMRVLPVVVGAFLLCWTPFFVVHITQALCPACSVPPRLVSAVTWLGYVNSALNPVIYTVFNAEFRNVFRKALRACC

Homo sapiens = species on record: Homo sapiens; experiment: Selectivity ratio of Ki for human dopamine D2 receptor to Ki for human dopamine D4 receptor
[2] = target: T2, Muscarinic acetylcholine receptor M1 (Homo sapiens, UniProt P11229); experiment: Displacement of [3H]NMS from human muscarinic M1 receptor expressed in CHO cell membranes after 2 hrs by liquid scintillation counting method
T2 sequence (P11229 whole entry): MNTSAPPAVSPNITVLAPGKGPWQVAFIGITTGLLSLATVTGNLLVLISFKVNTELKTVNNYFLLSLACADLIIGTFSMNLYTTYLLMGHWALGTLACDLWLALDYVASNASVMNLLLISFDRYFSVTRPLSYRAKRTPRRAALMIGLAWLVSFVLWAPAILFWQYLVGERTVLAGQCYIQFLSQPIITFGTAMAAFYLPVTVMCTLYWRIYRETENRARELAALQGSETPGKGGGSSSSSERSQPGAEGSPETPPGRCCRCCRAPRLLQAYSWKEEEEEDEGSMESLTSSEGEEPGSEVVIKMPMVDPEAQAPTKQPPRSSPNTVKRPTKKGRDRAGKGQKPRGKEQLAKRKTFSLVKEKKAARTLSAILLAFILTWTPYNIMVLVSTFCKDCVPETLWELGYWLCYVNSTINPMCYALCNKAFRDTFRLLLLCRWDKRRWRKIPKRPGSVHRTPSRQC

[3] = target: T3, Muscarinic acetylcholine receptor M2 (Homo sapiens, UniProt P08172); experiment: Displacement of [3H]NMS from human muscarinic M2 receptor expressed in CHO cell membranes after 2 hrs by liquid scintillation counting method
T3 sequence (P08172 whole entry): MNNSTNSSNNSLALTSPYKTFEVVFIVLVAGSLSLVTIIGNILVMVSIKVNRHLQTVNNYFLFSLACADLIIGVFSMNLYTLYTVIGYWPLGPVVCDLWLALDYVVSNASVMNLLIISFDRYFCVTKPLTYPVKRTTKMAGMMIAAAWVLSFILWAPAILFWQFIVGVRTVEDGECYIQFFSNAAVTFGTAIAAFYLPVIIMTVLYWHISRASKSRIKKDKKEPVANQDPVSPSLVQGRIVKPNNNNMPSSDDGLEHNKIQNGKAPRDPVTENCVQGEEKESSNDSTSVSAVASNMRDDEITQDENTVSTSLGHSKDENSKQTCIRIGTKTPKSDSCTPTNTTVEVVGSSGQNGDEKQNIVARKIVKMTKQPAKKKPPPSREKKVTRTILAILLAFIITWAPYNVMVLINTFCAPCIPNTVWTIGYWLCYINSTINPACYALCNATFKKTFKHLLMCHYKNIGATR

[4] = target: Muscarinic acetylcholine receptor M3 (Homo sapiens, UniProt P20309); experiment: Displacement of [3H]NMS from human muscarinic M3 receptor expressed in CHO cell membranes after 2 hrs by liquid scintillation counting method
Muscarinic acetylcholine receptor M3, sequence (P20309 whole entry): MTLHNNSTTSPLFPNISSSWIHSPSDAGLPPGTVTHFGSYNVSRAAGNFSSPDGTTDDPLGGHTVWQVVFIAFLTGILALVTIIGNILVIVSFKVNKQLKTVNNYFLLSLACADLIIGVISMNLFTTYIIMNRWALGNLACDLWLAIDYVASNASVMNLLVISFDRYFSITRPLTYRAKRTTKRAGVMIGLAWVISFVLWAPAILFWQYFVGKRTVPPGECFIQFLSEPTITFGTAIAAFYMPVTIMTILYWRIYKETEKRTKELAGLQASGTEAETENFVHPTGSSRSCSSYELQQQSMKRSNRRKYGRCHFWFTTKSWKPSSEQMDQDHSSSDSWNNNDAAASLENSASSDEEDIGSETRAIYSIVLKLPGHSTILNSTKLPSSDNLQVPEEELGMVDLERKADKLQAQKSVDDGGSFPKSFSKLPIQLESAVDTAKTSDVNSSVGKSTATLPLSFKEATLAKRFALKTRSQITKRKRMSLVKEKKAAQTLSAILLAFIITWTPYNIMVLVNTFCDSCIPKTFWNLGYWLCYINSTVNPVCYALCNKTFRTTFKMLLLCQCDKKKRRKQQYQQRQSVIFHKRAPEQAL

[5] = target: T4, Muscarinic acetylcholine receptor M4 (Homo sapiens, UniProt P08173); experiment: Displacement of [3H]NMS from human muscarinic M4 receptor expressed in CHO cell membranes after 2 hrs by liquid scintillation counting method
T4 sequence (P08173 whole entry): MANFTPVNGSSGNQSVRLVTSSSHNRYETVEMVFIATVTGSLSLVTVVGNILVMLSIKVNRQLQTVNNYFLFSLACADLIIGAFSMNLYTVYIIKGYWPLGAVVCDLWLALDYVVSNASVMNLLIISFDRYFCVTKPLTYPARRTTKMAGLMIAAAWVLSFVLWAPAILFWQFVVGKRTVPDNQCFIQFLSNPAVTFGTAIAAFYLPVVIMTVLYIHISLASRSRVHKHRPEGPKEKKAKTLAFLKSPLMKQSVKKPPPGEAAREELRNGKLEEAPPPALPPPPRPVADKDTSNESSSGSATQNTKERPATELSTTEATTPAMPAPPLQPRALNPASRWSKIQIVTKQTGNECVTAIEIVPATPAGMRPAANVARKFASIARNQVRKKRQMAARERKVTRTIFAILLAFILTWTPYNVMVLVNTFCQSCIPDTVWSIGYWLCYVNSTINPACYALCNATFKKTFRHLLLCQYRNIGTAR

[6] = target: T5, Muscarinic acetylcholine receptor M5 (Homo sapiens, UniProt P08912); experiment: Displacement of [3H]NMS from human muscarinic M5 receptor expressed in CHO cell membranes after 2 hrs by liquid scintillation counting method
T5 sequence (P08912 whole entry): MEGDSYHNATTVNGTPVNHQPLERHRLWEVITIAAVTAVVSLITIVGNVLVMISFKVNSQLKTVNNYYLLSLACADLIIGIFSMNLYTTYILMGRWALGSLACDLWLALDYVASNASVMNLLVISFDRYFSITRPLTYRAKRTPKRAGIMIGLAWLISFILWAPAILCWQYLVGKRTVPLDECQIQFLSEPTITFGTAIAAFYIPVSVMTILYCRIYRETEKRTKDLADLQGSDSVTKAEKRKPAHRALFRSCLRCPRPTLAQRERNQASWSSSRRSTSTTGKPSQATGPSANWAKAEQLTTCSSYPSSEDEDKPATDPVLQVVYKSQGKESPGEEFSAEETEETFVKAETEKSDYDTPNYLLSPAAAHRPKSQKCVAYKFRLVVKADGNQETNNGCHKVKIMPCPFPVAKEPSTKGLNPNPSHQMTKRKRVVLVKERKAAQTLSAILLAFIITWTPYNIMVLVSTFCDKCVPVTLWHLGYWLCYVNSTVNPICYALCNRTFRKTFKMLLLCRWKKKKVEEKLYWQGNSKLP

D(4) dopamine receptor [7] = target: T1, D(4) dopamine receptor; experiment: Antagonist activity at human SP/Myc epitope-tagged dopamine D4 receptor expressed in HEK293T cells assessed as inhibition of dopamine-induced RLuc8-fused Galphai1 activation preincubated for 15 mins followed by dopamine induction measured after 2 mins by BRET assay; assay type: cell-based, HEK-293T
D(4) dopamine receptor [8] = target: T1, D(4) dopamine receptor; experiment: Antagonist activity at human SP/Myc epitope-tagged dopamine D4 receptor expressed in HEK293T cells assessed as inhibition of dopamine-induced mVenus-fused beta-arrestin2 recruitment preincubated for 15 mins followed by dopamine induction measured after 2 mins by BRET assay; assay type: cell-based, HEK-293T

D(2) dopamine receptor, sequence (P14416 whole entry): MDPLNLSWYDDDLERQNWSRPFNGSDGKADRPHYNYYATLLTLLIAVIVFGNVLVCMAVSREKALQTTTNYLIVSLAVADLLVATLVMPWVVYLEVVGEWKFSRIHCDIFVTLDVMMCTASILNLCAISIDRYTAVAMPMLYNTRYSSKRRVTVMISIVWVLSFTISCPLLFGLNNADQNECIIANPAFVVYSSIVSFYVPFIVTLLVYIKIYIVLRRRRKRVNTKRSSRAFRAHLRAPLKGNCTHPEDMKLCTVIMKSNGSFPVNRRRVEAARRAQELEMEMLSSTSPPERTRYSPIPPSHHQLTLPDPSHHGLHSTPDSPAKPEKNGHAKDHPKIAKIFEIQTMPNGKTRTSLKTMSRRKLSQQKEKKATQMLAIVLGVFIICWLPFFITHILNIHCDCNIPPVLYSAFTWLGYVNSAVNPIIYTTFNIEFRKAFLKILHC

Ki (D(2) dopamine receptor) [nM]	Ki (D(3) dopamine receptor) [nM]	Ki (D(4) dopamine receptor [1]) [nM]	Ratio Ki (Homo sapiens)	Ki [2] [nM]	Ki [3] [nM]	Ki [4] [nM]	Ki [5] [nM]	Ki [6] [nM]	IC50 (D(4) dopamine receptor [7]) [nM]	IC50 (D(4) dopamine receptor [8]) [nM]	SMILES
525	282	1.38	380	490	562	1350	575	3550			CCCCCC1CCN(CCCN2C(=O)CCc3ccccc32)CC1
661	589	74.1	9								O=C1CCc2ccccc2N1CCCN1CCC(CCCO)CC1
912	1550	5.25	174	2510	1910	2340	1660	1950			CCCC1CCN(CCCN2C(=O)CCc3ccccc32)CC1
1170	676	4.37	269						126	151	O=C1CCc2ccccc2N1CCCN1CCC(CCCCCO)CC1
933	955	100	9								O=C1CCc2ccccc2N1CCCN1CCC(CCCCCCCO)CC1
5130	3890	316	16	2690	4170	7080	3160	9120			CCCCN1CCN(CCCN2C(=O)CCc3ccccc32)CC1
457	708	1.95	234	2880	2400	4680	1290	2040			O=C1CCc2ccccc2N1CCCN1CCC(c2ccccc2)CC1

The remaining lines, values behind:

SMILES	Ki (D(2) dopamine receptor) [nM]	Ki (D(3) dopamine receptor) [nM]	Ki (D(4) dopamine receptor [1]) [nM]	Ratio Ki (Homo sapiens)	Ki [2] [nM]	Ki [3] [nM]	Ki [4] [nM]	Ki [5] [nM]	Ki [6] [nM]	IC50 (D(4) dopamine receptor [7]) [nM]	IC50 (D(4) dopamine receptor [8]) [nM]
CC(C)Oc1cccnc1N(C)C1CCN(Cc2ccc(I)cc2)CC1				1720							
COc1ccc(Cl)cc1OC[C@@H]1CN(Cc2ccc(Cl)cc2)CCO1				48							
O=C1CCc2ccccc2N1CCCN1CCC(CCc2ccccc2)CC1	288	407	2.14	135	263	204	501	200	759		
COc1cccc(CCC2=NCCN2CCc2ccccc2)c1			95.5	> 105							
CC1CCN(CCCN2C(=O)CCc3ccccc32)CC1	4470	3720	257	17	12000	11500	14100	9330	24000		
O=C1CCc2ccccc2N1CCCN1CCN(CCc2ccccc2)CC1	5750	3980	28.8	200	2290	1780	6610	5130	7940		
